Values quoted from earlier work as cited in article PMC4860896 (Theranostics, 2016).

In the case of `OCC1[C@H]2CC/C=C/CC[C@@H]12` (stereo partly drawn) [compound 4, (1R,8S,E)-bicyclo[6.1.0]non-4-en-9-ylmethanol], the “rate constant of reaction of sTCO with diphenyl-s-tetrazine derivatives” value (at 25 °C in water, prior study) is listed as “up to 2.86 x 10^5 M^-1s^-1” and the “rate constant of tetrazine ligation, fastest measured” value (room temperature conjugations in water, listed as sTCO) is listed as ≤ 3.3e+06 M⁻¹ s⁻¹.
